Measured values taken from patent publication US20140227741A1, “Biological Systems for Production of Highest Quality Proteins” (Mediterranean Institute for Life Sciences, priority 2012, published 2014).

Legend:
[1] = system: reactive oxygen species (ROS) level; test: Effect of 1 mM trolox on reactive oxygen species (ROS) level; type: cell-based, E. coli
From the text: (§1) The functional defects of proteins, correlating with their oxidative damage (carbonylation), can be suppressed by antioxidants in proportion to the extent of the decrease in protein carbonylation. This is illustrated by the effects of trolox (6-hydroxy-2,5,7,8-tetramethylchroman-2-carboxylic acid) on the reduction of ROS species levels and PC levels as given in Table 2.

[2] = system: protein carbonylation (PC) amount; test: Effect of 1 mM trolox on protein carbonylation (PC) amount; type: cell-based, E. coli
From the text: as §1
The procedure for the quantification of protein carbonylation by ELISA method is as follows. The steps of protein extraction are as described in Example 1 (steps 1 and 2). Protein […] concentration is determined and adjusted so that the proteins are loaded into ELISA wells at 10 μg/mL. Adsorbed proteins are derivatized by using 12 μg/mL DNPH. Derivatization of adsorbed proteins is followed by detection of derivatized dinitrophenol (DNP)-carbonyl by a rabbit anti-DNP primary antibody (Sigma, D9656) and goat anti-rabbit secondary antibody conjugated to HRP (Jackson ImmunoResearch, 111-035-14). Stocks of antibodies were prepared at ˜1 ug/uL and used at 1:7000 dilutions.

`Cc1c(C)c2c(c(C)c1O)CCC(C)(C(=O)O)O2` (stereo not drawn) [trolox, 6-hydroxy-2,5,7,8-tetramethylchroman-2-carboxylic acid] was tested. Which ROS reduction ([1]; strain wt) did it give?
The ROS reduction was 0.41.

And the ROS reduction ([1]; strain ΔdnaK)?
The ROS reduction was 0.41.

What about the ROS reduction ([1]; strain Δtig) of the same molecule?
Its ROS reduction is 0.45.

What about the PC reduction ([2]; strain wt) of the same molecule?
Its PC reduction is 0.26.

What about the PC reduction ([2]; strain ΔdnaK) of the same molecule?
Its PC reduction is 0.25.

And the PC reduction ([2]; strain Δtig)?
The PC reduction was 0.33.
